# Data from PMC10780244, “Antileishmanial Effect of 1,5- and 1,8-Substituted Fused Naphthyridines” (Molecules, 2023).
# How the values were obtained:
# [1] = test system: axenic iRFP-L. infantum amastigotes from bone marrow cells; test: Axenic amastigote viability assay (iRFP fluorescence, first screening); format: cell-based; settings: Leishmania infantum, Bone marrow cell, cut-off 25 µM, 72 h, read-out: Axenic Amastigotes (concentration with inhibition)
# Protocol: (§1) The 1,5- and 1,8-fused naphthyridine derivatives were evaluated as antileishmanial agents in assays using two forms of L. infantum amastigotes: axenic amastigotes recovered from bone marrow cells of infected BALB/c mice and intramacrophagic amastigotes obtained from splenic explants of the same subjects. The L. infantum strain used is a genetically modified strain previously engineered by our group to constitutively express the infrared protein iRFP from Rhodopseudomonas palustris bacteriophytochrome (iRFP L. infantum). This strain allows monitoring the viability of both forms of the parasite by quantifying the fluorescence emitted at 700 nm by the iRFP protein produced by living amastigotes.
# (§2) Amastigotes obtained from mouse bone marrow cells were used to perform a first screening with the complete series of fused 1,5- and 1,8-naphthyridines. […] The toxicity of these selected compounds was assessed in non-infected splenic cells and the cytotoxic concentration (CC50) value obtained was used to calculate the selective index (SI). The oral tolerability of these same compounds was tested by calculating the viability of murine intestinal organoids exposed to two concentrations (50 and 25 µM).
# To obtain iRFP-L. infantum axenic amastigotes, femur and tibia were carefully cut at both ends, and marrow cells were removed by passing PBS through the medullary cavity with a 29G needle. The bone marrow cell suspension was filtered through a 100 µm cell strainer and centrifuged at 3500× g for 10 min at room temperature. After centrifugation, cells were resuspended in amastigote culture medium: 15 mM KCl; 136 mM KH2PO4; 10 mM K2HPO4·3H2O; 0.5 mM MgSO4. 7H2O; 24 mM NaHCO3; 22 mM glucose; 1 mM glutamine, 1xRPMI 1640 vitamin mix (Sigma-Aldrich, Merck, Darmstadt, Germany), 10 mM folic acid, 100 mM adenosine, 1xRPMI amino acid mix (Sigma-Aldrich, Merck, Darmstadt, Germany), 5 mg/mL hemin, antibiotic cocktail, 25 mM MES and 10% FBS, and incubated at 37 °C.
# To test the antileishmanial effect of naphthyridines on axenic amastigotes, 40 μL of a suspension containing 3 × 10^4 iRFP-L. infantum parasites per well were incubated with another 40 μL of the drugs dilutions in amastigote culture medium with 7.5% FBS. Incubations were performed in 384-well black microtiter plates with an optical bottom at 37 °C and 5% CO2 for 72 h. Solutions of 0.1% (v/v) DMSO and 10 μM AMB were used as negative and positive controls, respectively. The assays were performed by triplicate.
# (§3) The viability of axenic and intramacrophage amastigotes was calculated measuring the fluorescence emitted at 700 nm by the iRFP protein from live parasites and recorded by an Odyssey infrared imaging system (Li-Cor, NE, USA). The fluorescence emitted by the negative control wells was considered 100% viability, whereas the fluorescence emitted by the positive control wells, was adjusted to 0% viability.
# [2] = test system: intramacrophagic iRFP-L. infantum amastigotes from murine spleens; test: Ex vivo intramacrophagic amastigote viability assay (iRFP fluorescence); format: cell-based, Leishmania infantum; settings: for EC50: Leishmania infantum, ex vivo murine splenic explants, 72 h, read-out: Intracellular Amastigotes EC50; for antileishmanial activity against Leishmania amastigotes (in words): summary in discussion
# Protocol: as §1, §2
# Intramacrophagic amastigotes were obtained by cutting spleens into small pieces that were incubated for 25 min with 0.5 mL of collagenase D (2 mg/mL) (Merck, Darmstadt, Germany) dissolved in 4.5 mL buffer (10 mM HEPES, pH 7.4, 150 mM NaCl, 5 mM KCl, 1 mM MgCl2 and 1.8 mM CaCl2). The cell suspension was filtered through a 100 µm cell strainer. After erythrocyte lysis (150 mM NH4Cl, 1 mM KHCO3, 0.1 mM EDTA), splenocytes were centrifuged three times at 500× g for 7 min at 4 °C, with PBS washes between each centrifugation. The splenocyte suspension containing intramacrophagic amastigotes was resuspended in RPMI medium (Gibco, Fisher Scientific, Waltham, MA, USA) supplemented with 20% FBS, 1 mM sodium pyruvate, 24 mM NaHCO3, 2 mM L-glutamine, 1× RPMI vitamins, 25 mM HEPES and antibiotic cocktail.
# For the ex vivo intramacrophagic amastigote assay, 40 μL of one-half or one-third serial dilutions of each diluted in supplemented RPMI medium, were added to black 384-well optical-bottom black plates containing 40 μL of murine splenocytes obtained as described above. Positive controls (containing 10 μM of AMB) and negative controls (containing 0.1% v/v DMSO) were included. The plates were incubated at 37 °C and 5% CO2, for a maximum period of 72 h and the assays were performed by triplicate.
# as §3
# Fluorescence emitted by intramacrophage amastigotes were plotted against the drug concentration using the nonlinear fit analysis provided by the Sigma Plot 10.1 statistical package to obtain EC50 values.
# [3] = test system: recombinant human DNA topoisomerase IB (hTopIB); parameters: method as in PMID 31229877, PMID 32279049, PMID 33962152; dose or concentration left out as unconfirmed; settings: cited from earlier work
# two cancer cell lines = test system: two cancer cell lines; parameters: method as in PMID 31229877, PMID 32279049, PMID 33962152; settings: cited from earlier work
# [4] = test system: leishmanial DNA topoisomerase IB (LdTopIB); test: Relaxation of supercoiled plasmid DNA assay; format: biochemical, Leishmania; settings: 100 μM of compounds, 1 min at 37 °C, in words
# Protocol: page 2: DNA DMSO 6b8a8b8c9b10b11a13a13b14a7c8d15b Relaxationof supercoiled plasmid DNA assay. Each reaction contains one unit of purified leishmanial DNA topisomeraseIB enzyme (LdTopIB), 100 μM ofcompounds, 0.5μg of supercoiled […], 10 mM Tris-HCl buffer pH 7.5, 5 mM MgCl 2, 0.1 mM EDTA, 15 μg/mL bovine serum albumin, 150 mM KCl. Reaction mixtures were incubated 1 min at 37 °C and stopped by the addition of 4 μL loading buffer (5% sarkosyl, 0.12% bromophenol blue, 25% glycerol). The topoisomerswere resolved in 1% agarose gels by electrophoresis in 0.1 M Tris borate EDTA buffer (pH 8.0) at 2 V/cm for 16 h and visualized with UV illumination after ethidium bromide (0.5μg/mL) staining. […]
# [5] = Cytotoxicity in uninfected murine splenic cells (alamarBlue); format: cell-based, mouse; settings: mouse; uninfected splenic cells, 72 h, alamarBlue; read-out: Mouse Splenic Macrophages CC50
# Protocol: (§4) Amastigotes obtained from mouse bone marrow cells were used to perform a first screening with the complete series of fused 1,5- and 1,8-naphthyridines. […] The toxicity of these selected compounds was assessed in non-infected splenic cells and the cytotoxic concentration (CC50) value obtained was used to calculate the selective index (SI). The oral tolerability of these same compounds was tested by calculating the viability of murine intestinal organoids exposed to two concentrations (50 and 25 µM). In order to assess the in vitro safety of the naphthyridines, cytotoxicity assays were carried out in ex vivo splenic explants from uninfected mice, which were prepared as previously described to obtain intramacrophagic amastigotes. Cells were seeded at a density of 1 × 10^6 cells per well in 96-well plates containing the prediluted compounds and incubated at 37 °C and 5% CO2 during 72 h. AlamarBlue assay (Invitrogen, Fisher Scientific, Waltham, MA, USA) was used to estimate cell viability following manufacturer’s recommendations. The assays were performed by triplicate. Absorbance of viable cells vs. compound concentrations were fitted by nonlinear analysis using the Sigma Plot 10.1 statistical package to calculate the cytotoxic concentration 50 (CC50) values. Selectivity index (SI) was calculated as the ratio between CC50 and the EC50 values of intramacrophagic amastigotes.
# [6] = test system: mouse splenic macrophages; test: as above; format: cell-based; settings: summary in discussion
# Protocol: as §4
SMILES,minimal effective concentration [1] [µM],EC50 [2] [µM],also measured
c1ccc([C@@H]2c3ncccc3NC3c4ccccc4OCC32)cc1 (stereo partly shown) [Compound 4a],> 25,,
COc1ccc2c(n1)[C@@H](c1ccccc1)C1COc3ccccc3C1N2 (stereo partly shown) [Compound 4c],> 25,,
c1ccc(-c2c3c(nc4cccnc24)-c2ccccc2OC3)cc1 [Compound 5a],> 25,,
Brc1ccc2nc3c(c(-c4ccccc4)c2n1)COc1ccccc1-3 [Compound 5b],> 25,,
COc1ccc2nc3c(c(-c4ccccc4)c2n1)COc1ccccc1-3 [Compound 5c],> 25,,
O=C1Oc2ccccc2C2Nc3cccnc3[C@@H](c3ccccc3)C12 (stereo partly shown) [Compound 6a],> 25,,
COc1ccc2c(n1)[C@@H](c1ccccc1)C1C(=O)Oc3ccccc3C1N2 (stereo partly shown) [Compound 6c],> 25,,
O=c1oc2ccccc2c2nc3cccnc3c(-c3ccccc3)c12 [Compound 7a],> 25,,
O=c1oc2ccccc2c2nc3ccc(Br)nc3c(-c3ccccc3)c12 [Compound 7b],> 25,,
Cc1ccc(S(=O)(=O)N2Cc3c(nc4cccnc4c3-c3ccccc3)-c3ccccc32)cc1 [Compound 9a],> 25,,
COc1ccc2nc3c(c(-c4ccccc4)c2n1)CN(S(=O)(=O)c1ccc(C)cc1)c1ccccc1-3 [Compound 9c],> 25,> 20,
Cc1ccc(S(=O)(=O)N2Cc3c(nc4ccc(Br)nc4c3-c3ccccc3)-c3ccccc32)cc1 [Compound 9d],> 25,> 20,
c1ccc([C@@H]2c3cccnc3NC3c4ccccc4OCC32)cc1 (stereo partly shown) [Compound 10a],> 25,> 20,antileishmanial activity against Leishmania amastigotes (in words) [2]: not effective against Leishmania amastigotes; inhibitory effect on DNA relaxation activity of hTopIB [3]: had an inhibitory effect on DNA relaxation activity; cytotoxic effects on two cancer cell lines (concentration range) (two cancer cell lines): 1 to 15 µM
Cc1ccc2c(c1)C1Nc3ncccc3[C@@H](c3ccccc3)C1CO2 (stereo partly shown) [Compound 10c],> 25,> 20,
Fc1ccc2c(c1)-c1nc3ncccc3c(-c3ccccc3)c1CO2 [Compound 11b],> 25,> 20,
COc1ccc(-c2c3c(nc4ncccc24)-c2ccccc2OC3)cc1 [Compound 11c],> 25,> 20,
O=C1Oc2ccccc2C2Nc3ncccc3[C@@H](c3ccccc3)C12 (stereo partly shown) [Compound 12a],> 25,> 20,
O=C1Oc2ccccc2C2Nc3ncc(Br)cc3[C@@H](c3ccccc3)C12 (stereo partly shown) [Compound 12b],> 25,> 20,
O=c1oc2ccc(F)cc2c2nc3ncccc3c(-c3ccccc3)c12 [Compound 13c],> 25,> 20,
Cc1ccc(S(=O)(=O)N2Cc3c(nc4ncccc4c3-c3ccccc3)-c3ccccc32)cc1 [Compound 15a],< 25,67.4 ± 9.78,SI ([2]; ratio CC50 (splenic macrophages) / EC50 (intramacrophagic amastigotes)): 0.1; antileishmanial activity against Leishmania amastigotes (in words) [2]: significant antileishmanial activity; inhibitory effect on DNA relaxation activity of hTopIB [3]: had an inhibitory effect on DNA relaxation activity; cytotoxic effects on two cancer cell lines (concentration range) (two cancer cell lines): 1 to 15 µM; LdTopIB inhibitory activity [4]: did not show leishmanial DNA topoisomerase IB (LdTopIB) inhibitory activity; CC50 at 72 h [5]: 8.78 ± 2.21 µM; toxicity (in words) [6]: significant toxicity
